Calls of active or inactive are those of the source.
Experiments:
Nonstructural protein 1 = Nonstructural protein 1 (Influenza A virus, UniProt Q194T2); type: functional, Influenza A virus (A/California/07/2009(H1N1))
Large T antigen = Large T antigen (Simian virus 40, UniProt P03070); type: functional, Betapolyomavirus macacae;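 note: Confirmatory-stage PubChem screen for compounds that inhibit SV40 T antigen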
[1] = target: T1, Corticotropin-releasing factor receptor 2/Corticotropin-releasing factor-binding protein (Homo sapiens, UniProt P24387+Q13324); test: activators of CRF receptor 2 with binding protein – uHTS hits, confirmation (AID 602473); type: functional; conditions: read-out: EC50_Mean
T1 sequence (Q13324 whole entry): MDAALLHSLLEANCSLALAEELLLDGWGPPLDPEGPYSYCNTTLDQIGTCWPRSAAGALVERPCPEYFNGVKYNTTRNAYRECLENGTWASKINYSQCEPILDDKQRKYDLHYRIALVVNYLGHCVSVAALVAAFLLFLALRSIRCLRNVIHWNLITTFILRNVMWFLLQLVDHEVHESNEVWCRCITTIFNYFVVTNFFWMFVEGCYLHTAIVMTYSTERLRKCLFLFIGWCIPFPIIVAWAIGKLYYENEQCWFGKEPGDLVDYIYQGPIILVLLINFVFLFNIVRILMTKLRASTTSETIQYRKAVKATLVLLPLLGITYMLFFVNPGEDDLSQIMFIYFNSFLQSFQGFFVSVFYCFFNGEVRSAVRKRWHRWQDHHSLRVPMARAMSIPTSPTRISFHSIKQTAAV
T1 sequence (P24387 whole entry): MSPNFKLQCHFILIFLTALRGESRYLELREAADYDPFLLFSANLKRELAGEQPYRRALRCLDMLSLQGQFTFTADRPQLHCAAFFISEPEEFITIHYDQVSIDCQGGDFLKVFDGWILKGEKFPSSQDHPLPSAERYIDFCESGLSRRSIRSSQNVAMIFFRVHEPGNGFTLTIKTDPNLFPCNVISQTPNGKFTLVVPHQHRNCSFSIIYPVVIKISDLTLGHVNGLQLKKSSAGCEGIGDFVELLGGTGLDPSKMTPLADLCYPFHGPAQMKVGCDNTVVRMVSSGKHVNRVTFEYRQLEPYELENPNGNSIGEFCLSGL

[2] = target: T1, Corticotropin-releasing factor receptor 2/Corticotropin-releasing factor-binding protein; test: Dose Response confirmation of uHTS hits for small molecule antagonists of the CRF-binding protein and CRF-R2 receptor complex.; type: functional; conditions: read-out: IC50_Mean
[3] = inhibitors of intracellular T. cruzi replication, confirmation, NIH3T3 host cells, beta-gal luminescence (AID 2044); type: functional, cell-based;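 note: intracellular parasites grown in NIH/3T3 mouse fibroblasts as host cells; luminescent beta-galactosidase reporter signal from transgenic T. cruzi replicating inside host cells; inhibitors lower the luminescence signal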
[4] = StAR promoter reporter inhibition counter-screen, dose response, counter-screen for LRH-1 inverse agonist project, cell-based, luminescence, luciferase reporter (AID 651969); type: functional
[5] = cytotoxicity toward NIH3T3 fibroblasts, dose response, counter-screen, cell-based, ATP luminescence, mouse fibroblasts (AID 2010); type: functional;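 note: cells exposed to compound for about 90 hours before reading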
Steroidogenic factor 1 = Steroidogenic factor 1 (Homo sapiens, UniProt Q13285); test: Counterscreen for inverse agonists of the liver receptor homolog-1 (LRH-1; NR5A2): Luminescence-based cell-based high throughput dose response assay to identify inverse agonists of the Steroidogenic Factor 1 Nuclear Receptor (SF1; NR5A1).; type: functional
[6] = target: Nuclear receptor subfamily 5 group A member 2 (Homo sapiens, UniProt O00482); type: functional, cell-based;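 note: HEK293T cells transfected with LRH-1 and a StAR promoter luciferase reporter; potency for inhibitors that lower LRH-1 driven reporter light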
[7] = target: T2, Type-1 angiotensin II receptor (Homo sapiens, UniProt P30556); test: AT1 receptor antagonists, dose response, selectivity assay for APJ receptor antagonist project, cell-based, uHTS hits (AID 463214); type: functional;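 note: antagonist potency against angiotensin II stimulated AT1 response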
T2 sequence (P30556 whole entry): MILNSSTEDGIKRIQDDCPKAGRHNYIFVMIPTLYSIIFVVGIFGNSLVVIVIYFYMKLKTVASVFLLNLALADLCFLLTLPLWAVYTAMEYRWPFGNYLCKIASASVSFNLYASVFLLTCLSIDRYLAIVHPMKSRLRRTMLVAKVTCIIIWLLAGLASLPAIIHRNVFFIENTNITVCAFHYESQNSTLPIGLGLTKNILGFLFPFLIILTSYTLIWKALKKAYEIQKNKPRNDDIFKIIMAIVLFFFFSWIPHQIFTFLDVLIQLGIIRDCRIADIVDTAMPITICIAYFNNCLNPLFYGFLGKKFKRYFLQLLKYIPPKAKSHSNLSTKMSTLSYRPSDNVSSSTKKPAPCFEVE

Beta-galactosidase = Beta-galactosidase (Escherichia coli, UniProt Q8VNN2); test: PubChem AID 485352; type: functional
[8] = target: 5-hydroxytryptamine receptor 5A (Homo sapiens, UniProt P47898); test: Counterscreen for agonists of OPRM1-OPRD1 heterodimerization: luminescence-based cell-based high throughput dose response assay to identify agonists of 5-hydroxytryptamine (serotonin) 5A receptor (HTR5A). [Related pubchem assays (depositor defined):AID504326, AID504355, AID504692, AID504904, AID504905]; type: functional
[9] = target: Delta-type opioid receptor (Homo sapiens, UniProt P41143); test: Counterscreen for agonists of heterodimerization of the mu 1 (OPRM1) and delta 1 (OPRD1) opioid receptors: Luminescence-based cell-based high throughput dose response assay to identify agonists of OPRD1 homodimerization. [Related pubchem assays (depositor defined):AID504326, AID504355, AID504692, AID504904, AID504905]; type: functional
[10] = target: T3, Short transient receptor potential channel 4 (Mus musculus, UniProt Q9QUQ5); test: mouse TRPC4 channel activators, dose response, cell-based, HEK293 TRPC4/mu-opioid, Fluo-4 calcium (AID 434937); type: functional
T3 sequence (Q9QUQ5 whole entry): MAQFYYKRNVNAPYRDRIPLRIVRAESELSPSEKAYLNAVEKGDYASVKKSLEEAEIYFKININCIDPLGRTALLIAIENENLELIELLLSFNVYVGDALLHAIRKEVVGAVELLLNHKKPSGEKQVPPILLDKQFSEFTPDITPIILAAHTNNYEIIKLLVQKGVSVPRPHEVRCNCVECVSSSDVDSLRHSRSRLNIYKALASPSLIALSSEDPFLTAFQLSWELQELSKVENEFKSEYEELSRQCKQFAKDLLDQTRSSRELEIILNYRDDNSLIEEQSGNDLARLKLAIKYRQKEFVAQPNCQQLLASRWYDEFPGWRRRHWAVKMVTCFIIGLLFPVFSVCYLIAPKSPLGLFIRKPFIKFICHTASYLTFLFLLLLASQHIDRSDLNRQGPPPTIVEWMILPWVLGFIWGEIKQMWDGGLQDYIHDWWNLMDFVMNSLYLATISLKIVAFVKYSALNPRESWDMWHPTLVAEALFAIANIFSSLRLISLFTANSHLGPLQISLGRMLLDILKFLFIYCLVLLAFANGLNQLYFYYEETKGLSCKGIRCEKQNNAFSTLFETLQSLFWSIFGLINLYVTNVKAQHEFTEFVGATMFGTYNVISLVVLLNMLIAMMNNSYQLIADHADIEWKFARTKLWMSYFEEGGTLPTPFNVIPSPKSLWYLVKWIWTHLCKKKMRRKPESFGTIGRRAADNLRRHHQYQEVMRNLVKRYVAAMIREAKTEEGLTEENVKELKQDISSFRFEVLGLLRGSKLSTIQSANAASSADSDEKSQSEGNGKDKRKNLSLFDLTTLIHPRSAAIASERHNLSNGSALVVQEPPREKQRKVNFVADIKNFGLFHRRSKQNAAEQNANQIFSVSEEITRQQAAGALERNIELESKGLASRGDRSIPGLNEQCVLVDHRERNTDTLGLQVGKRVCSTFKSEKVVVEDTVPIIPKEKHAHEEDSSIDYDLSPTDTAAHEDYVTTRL

Mu-type opioid receptor = Mu-type opioid receptor (Homo sapiens, UniProt P35372); test: Counterscreen for agonists of heterodimerization of the mu 1 (OPRM1) and delta 1 (OPRD1) opioid receptors: Luminescence-based cell-based high throughput dose response assay to identify agonists of OPRM1 homodimerization.; type: functional;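 note: U2OS cells expressing OPRM1 and beta-arrestin as split beta-galactosidase partners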
[11] = target: T4, Endoribonuclease toxin MazF (Escherichia coli K-12, UniProt P0AE70); test: MazF toxin RNase activators, dose response, biochemical, fluorescence, single-stranded RNA substrate, uHTS hits (AID 588481); type: functional
T4 sequence (P0AE70 whole entry): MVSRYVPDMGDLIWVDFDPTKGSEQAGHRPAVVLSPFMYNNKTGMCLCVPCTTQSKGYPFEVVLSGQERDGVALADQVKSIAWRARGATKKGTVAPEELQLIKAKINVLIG

cells = type: functional, cell-based; conditions: HEK-CNG
Galanin receptor type 3 = target: T5, Galanin receptor type 3 (Homo sapiens, UniProt O60755); test: Fluorescence-based cell-based primary high throughput dose response assay to identify antagonists of the Galanin Receptor 3 (GalR3).; type: functional
T5 sequence (O60755 whole entry): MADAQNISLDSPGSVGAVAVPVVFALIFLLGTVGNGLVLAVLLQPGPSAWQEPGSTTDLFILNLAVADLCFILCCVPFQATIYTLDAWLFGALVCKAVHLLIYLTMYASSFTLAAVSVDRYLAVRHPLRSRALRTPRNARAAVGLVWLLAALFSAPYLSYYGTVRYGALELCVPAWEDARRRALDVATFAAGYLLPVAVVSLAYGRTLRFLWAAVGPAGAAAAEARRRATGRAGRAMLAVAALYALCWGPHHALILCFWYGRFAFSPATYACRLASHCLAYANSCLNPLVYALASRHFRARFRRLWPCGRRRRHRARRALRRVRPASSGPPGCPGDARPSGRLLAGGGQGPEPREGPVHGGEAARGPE

Chain of Beta-galactosidase (Q8VNN2 whole entry): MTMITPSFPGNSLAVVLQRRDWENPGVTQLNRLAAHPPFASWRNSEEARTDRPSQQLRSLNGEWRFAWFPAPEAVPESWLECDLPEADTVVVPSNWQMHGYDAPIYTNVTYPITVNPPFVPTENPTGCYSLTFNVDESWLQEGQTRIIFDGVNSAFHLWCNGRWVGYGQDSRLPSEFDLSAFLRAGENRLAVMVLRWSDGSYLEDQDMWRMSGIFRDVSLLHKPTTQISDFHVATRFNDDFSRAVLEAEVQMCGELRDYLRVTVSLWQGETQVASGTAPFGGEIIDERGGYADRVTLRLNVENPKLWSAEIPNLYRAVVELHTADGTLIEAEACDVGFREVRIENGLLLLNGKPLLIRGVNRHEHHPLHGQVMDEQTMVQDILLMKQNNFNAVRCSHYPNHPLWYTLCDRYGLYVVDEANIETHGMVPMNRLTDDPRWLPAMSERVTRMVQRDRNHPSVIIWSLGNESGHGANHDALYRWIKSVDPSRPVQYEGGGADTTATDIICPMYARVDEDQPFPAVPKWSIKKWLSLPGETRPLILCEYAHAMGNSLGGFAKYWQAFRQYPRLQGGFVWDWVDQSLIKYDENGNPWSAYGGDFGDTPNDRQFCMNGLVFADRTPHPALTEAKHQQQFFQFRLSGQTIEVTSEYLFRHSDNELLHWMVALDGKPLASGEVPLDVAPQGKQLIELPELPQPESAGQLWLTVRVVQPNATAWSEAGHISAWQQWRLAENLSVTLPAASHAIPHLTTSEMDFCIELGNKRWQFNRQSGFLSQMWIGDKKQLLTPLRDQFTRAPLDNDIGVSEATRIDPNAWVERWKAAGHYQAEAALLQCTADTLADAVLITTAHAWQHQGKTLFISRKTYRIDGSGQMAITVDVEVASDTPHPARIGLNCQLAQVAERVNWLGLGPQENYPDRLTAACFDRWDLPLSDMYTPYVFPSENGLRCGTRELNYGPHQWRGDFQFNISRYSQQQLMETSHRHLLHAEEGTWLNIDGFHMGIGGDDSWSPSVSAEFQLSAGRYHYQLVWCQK
Chain of Delta-type opioid receptor (P41143 whole entry): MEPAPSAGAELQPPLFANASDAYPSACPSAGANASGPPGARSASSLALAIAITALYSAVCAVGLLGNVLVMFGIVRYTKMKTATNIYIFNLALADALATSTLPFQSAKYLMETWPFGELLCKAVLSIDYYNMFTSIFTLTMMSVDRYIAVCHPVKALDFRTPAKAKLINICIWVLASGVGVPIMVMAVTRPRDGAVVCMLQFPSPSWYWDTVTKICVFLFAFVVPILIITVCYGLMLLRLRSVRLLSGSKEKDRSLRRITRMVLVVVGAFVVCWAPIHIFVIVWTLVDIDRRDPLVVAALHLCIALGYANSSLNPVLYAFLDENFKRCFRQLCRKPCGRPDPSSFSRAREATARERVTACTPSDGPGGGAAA
Chain of Nonstructural protein 1 (Q194T2 whole entry): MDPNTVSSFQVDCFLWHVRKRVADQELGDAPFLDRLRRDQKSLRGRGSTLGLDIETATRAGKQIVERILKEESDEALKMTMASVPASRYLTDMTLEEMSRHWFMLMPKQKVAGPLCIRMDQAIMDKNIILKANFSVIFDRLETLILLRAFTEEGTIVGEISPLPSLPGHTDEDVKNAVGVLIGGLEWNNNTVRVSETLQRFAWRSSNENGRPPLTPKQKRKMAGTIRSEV
Chain of Nuclear receptor subfamily 5 group A member 2 (O00482 whole entry): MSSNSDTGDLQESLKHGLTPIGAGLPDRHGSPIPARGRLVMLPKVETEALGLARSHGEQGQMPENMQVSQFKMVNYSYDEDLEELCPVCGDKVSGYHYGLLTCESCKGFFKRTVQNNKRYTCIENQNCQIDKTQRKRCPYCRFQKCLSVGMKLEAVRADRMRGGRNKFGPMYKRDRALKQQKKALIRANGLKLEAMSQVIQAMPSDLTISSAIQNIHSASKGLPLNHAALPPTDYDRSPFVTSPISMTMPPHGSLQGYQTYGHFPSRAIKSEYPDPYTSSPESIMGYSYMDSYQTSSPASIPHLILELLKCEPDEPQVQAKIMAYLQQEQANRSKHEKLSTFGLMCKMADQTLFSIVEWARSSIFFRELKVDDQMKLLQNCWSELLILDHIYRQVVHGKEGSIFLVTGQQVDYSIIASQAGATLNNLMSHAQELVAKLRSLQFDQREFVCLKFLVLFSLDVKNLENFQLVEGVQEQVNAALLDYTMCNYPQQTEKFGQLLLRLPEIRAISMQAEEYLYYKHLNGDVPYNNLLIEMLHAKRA
Chain of Mu-type opioid receptor (P35372 whole entry): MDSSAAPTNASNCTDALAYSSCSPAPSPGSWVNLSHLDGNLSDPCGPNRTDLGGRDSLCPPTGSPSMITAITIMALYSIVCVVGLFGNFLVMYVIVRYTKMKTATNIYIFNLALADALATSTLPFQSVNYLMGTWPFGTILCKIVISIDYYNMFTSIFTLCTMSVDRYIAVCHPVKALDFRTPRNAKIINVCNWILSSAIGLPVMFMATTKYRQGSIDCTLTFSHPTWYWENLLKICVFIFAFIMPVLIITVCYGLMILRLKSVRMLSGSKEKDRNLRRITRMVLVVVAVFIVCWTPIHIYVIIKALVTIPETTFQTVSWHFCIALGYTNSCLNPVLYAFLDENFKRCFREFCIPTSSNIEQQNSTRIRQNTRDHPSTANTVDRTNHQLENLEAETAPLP
Chain of Steroidogenic factor 1 (Q13285 whole entry): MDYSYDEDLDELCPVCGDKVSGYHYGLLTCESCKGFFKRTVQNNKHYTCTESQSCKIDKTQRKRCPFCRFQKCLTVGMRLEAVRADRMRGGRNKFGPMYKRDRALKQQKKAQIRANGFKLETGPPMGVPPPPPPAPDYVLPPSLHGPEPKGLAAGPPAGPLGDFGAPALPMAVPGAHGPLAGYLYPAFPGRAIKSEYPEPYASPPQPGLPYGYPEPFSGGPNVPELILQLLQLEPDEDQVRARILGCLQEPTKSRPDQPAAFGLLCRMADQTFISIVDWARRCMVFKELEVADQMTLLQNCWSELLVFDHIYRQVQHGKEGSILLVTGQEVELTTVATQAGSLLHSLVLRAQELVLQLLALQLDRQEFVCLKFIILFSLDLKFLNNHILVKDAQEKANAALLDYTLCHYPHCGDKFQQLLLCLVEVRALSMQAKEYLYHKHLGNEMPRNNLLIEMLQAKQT
Chain of Large T antigen (P03070 whole entry): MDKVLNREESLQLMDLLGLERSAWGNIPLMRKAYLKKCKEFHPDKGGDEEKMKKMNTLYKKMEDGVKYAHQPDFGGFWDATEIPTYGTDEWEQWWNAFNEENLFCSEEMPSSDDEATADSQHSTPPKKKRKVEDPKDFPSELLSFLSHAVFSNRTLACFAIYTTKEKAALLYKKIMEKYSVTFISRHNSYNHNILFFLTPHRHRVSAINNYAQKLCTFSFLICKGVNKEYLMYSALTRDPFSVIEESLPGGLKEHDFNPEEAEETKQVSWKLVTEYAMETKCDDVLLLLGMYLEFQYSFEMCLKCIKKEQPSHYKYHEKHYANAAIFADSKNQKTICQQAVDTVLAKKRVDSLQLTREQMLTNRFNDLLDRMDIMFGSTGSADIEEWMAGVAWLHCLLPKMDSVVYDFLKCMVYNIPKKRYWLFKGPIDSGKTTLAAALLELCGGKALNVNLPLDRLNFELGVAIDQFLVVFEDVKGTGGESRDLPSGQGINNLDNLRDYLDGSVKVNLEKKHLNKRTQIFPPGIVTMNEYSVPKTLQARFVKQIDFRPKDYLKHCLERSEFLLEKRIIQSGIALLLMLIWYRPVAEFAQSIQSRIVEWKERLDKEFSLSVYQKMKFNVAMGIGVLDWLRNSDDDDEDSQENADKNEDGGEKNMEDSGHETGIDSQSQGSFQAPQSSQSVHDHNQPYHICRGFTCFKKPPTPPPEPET
Chain of 5-hydroxytryptamine receptor 5A (P47898 whole entry): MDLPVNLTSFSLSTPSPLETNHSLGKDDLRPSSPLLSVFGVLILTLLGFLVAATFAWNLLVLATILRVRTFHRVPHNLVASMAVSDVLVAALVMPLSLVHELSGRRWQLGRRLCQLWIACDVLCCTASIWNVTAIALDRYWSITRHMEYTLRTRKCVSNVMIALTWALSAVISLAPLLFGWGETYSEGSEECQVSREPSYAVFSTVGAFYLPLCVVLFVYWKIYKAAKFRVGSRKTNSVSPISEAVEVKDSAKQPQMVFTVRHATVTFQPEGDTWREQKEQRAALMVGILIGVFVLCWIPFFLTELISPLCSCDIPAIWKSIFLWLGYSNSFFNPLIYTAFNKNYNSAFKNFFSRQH

For CC1(C)C(/C=C/C=C/C=C/C=C2\N(CCCCS(=O)(=O)O)c3ccc4ccccc4c3C2(C)C)=[N+](CCCCS(=O)(=O)[O-])c2ccc3ccccc3c21 [INDOCYANINE GREEN], the IC50 (Nonstructural protein 1) was 2.7 µM (active), the IC50 (Large T antigen) was 2.1 µM (active) and the EC50 [1] was > 53 µM (inactive). For the same compound, the IC50 [2] was > 47.1 µM (inactive).

For Cc1cc(C)c2sc(NC(=O)c3ccc([N+](=O)[O-])o3)nc2c1, the EC50 [3] was 0.642 µM (active), the IC50 [4] was 35.8 µM (inactive) and the EC50 [5] was > 60 µM (not active). For the same compound, the IC50 (Steroidogenic factor 1) was 1.89 µM (active) and the IC50 [6] was 35.8 µM (inactive).

In the case of O=C(Cn1nnc2ccccc21)OCC(=O)c1ccc(Cl)c(Cl)c1, the IC50 [7] is reported as 13.3 µM (active) and the EC50 (Beta-galactosidase) is reported as > 40 µM (inactive).

In the case of Cc1ccc2c(C)c(C(=O)N(Cc3cccs3)C3CCS(=O)(=O)C3)oc2c1 (configuration not stated), the EC50 [8] is reported as > 92.5 µM (inactive), the EC50 [9] is reported as 63.6 µM (inactive) and the EC50 [10] is reported as 2.66 µM (active). For the same compound, the EC50 (Mu-type opioid receptor) was > 92.5 µM (inactive).

For Cc1ccc(S(=O)(=O)N/N=C/c2ccc3nccnc3c2)cc1, the IC50 [7] was > 40 µM (not active) and the EC50 (Beta-galactosidase) was > 40 µM (inactive).

In the case of COc1ccc(S(=O)(=O)NNc2nc(C)cc(C)n2)cc1[N+](=O)[O-], the IC50 [7] is reported as 36.7 µM (not active) and the EC50 (Beta-galactosidase) is reported as > 40 µM (inactive).

For CC1CC[C+]([N-]NS(=O)(=O)c2ccc([N+](=O)[O-])cc2)CC1, the EC50 [11] was > 99 µM (inactive).

In the case of CCOC(=O)Cc1csc(NC(=O)c2cc(=O)c3ccccc3o2)n1, the EC50 (cells) is reported as > 29.9 µM (inactive) and the IC50 (Galanin receptor type 3) is reported as 3.82 µM (active).

Reference: ChEMBL document CHEMBL1201862, “PubChem BioAssay data set” (2004)
